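Assay format: 96-well plates, 48-hour exposure. GI50: concentration for 50% inhibition of growth. Definition used: TGI = concentration required for complete inhibition of growth.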
Tests used:
Test in all cases: NCI anticancer screen, dose series, 48 h
786-0 renal = tested on: 786-0 renal
A498 renal = tested on: A498 renal
A549 NSCLC = tested on: A549 NSCLC
ACHN renal = tested on: ACHN renal
BT-549 breast = tested on: BT-549 breast
CAKI-1 renal = tested on: CAKI-1 renal
CCRF-CEM leukemia = tested on: CCRF-CEM leukemia
COLO 205 colon = tested on: COLO 205 colon
DU-145 prostate = tested on: DU-145 prostate
EKVX NSCLC = tested on: EKVX NSCLC
HCC-2998 colon = tested on: HCC-2998 colon
HCT-116 colon = tested on: HCT-116 colon
HCT-15 colon = tested on: HCT-15 colon
HL-60(TB) leukemia = tested on: HL-60(TB) leukemia
HOP-62 NSCLC = tested on: HOP-62 NSCLC
HOP-92 NSCLC = tested on: HOP-92 NSCLC
HS 578T breast = tested on: HS 578T breast
HT29 colon = tested on: HT29 colon
IGROV1 ovarian = tested on: IGROV1 ovarian
K-562 leukemia = tested on: K-562 leukemia
KM12 colon = tested on: KM12 colon
LOX IMVI melanoma = tested on: LOX IMVI melanoma
M14 melanoma = tested on: M14 melanoma
MALME-3M melanoma = tested on: MALME-3M melanoma
MCF7 breast = tested on: MCF7 breast
MDA-MB-231 breast = tested on: MDA-MB-231 breast
MDA-MB-435 = tested on: MDA-MB-435
MOLT-4 leukemia = tested on: MOLT-4 leukemia
NCI-H226 lung = tested on: NCI-H226 lung
NCI-H23 lung = tested on: NCI-H23 lung
NCI-H460 lung = tested on: NCI-H460 lung
NCI-H522 lung = tested on: NCI-H522 lung
NCI/ADR-RES ovarian = tested on: NCI/ADR-RES ovarian
OVCAR-3 ovarian = tested on: OVCAR-3 ovarian
OVCAR-4 ovarian = tested on: OVCAR-4 ovarian
OVCAR-5 ovarian = tested on: OVCAR-5 ovarian
OVCAR-8 ovarian = tested on: OVCAR-8 ovarian
PC-3 prostate = tested on: PC-3 prostate
RPMI-8226 leukemia = tested on: RPMI-8226 leukemia
RXF 393 renal = tested on: RXF 393 renal
SF-268 CNS = tested on: SF-268 CNS
SF-295 CNS = tested on: SF-295 CNS
SF-539 CNS = tested on: SF-539 CNS
SK-MEL-2 melanoma = tested on: SK-MEL-2 melanoma
SK-MEL-28 melanoma = tested on: SK-MEL-28 melanoma
SK-MEL-5 melanoma = tested on: SK-MEL-5 melanoma
SK-OV-3 ovarian = tested on: SK-OV-3 ovarian
SN12C renal = tested on: SN12C renal
SNB-19 CNS = tested on: SNB-19 CNS
SNB-75 CNS = tested on: SNB-75 CNS
SR leukemia = tested on: SR leukemia
SW-620 colon = tested on: SW-620 colon
T-47D breast = tested on: T-47D breast
TK-10 renal = tested on: TK-10 renal
U251 CNS = tested on: U251 CNS
UACC-257 melanoma = tested on: UACC-257 melanoma
UACC-62 melanoma = tested on: UACC-62 melanoma
UO-31 renal = tested on: UO-31 renal

Cc1ccc(C)c(N2CCN(c3ccncc3N)CC2)c1
GI50 (786-0 renal): 20.5 µM | TGI (786-0 renal): 58.1 µM | GI50 (A498 renal): 3.65 µM | TGI (A498 renal): 25.9 µM | GI50 (A549 NSCLC): 17.5 µM | TGI (A549 NSCLC): > 100 µM | GI50 (ACHN renal): 11.9 µM | TGI (ACHN renal): > 100 µM | GI50 (BT-549 breast): 21.9 µM | TGI (BT-549 breast): > 100 µM | GI50 (CAKI-1 renal): 13.4 µM | TGI (CAKI-1 renal): 83.9 µM | GI50 (CCRF-CEM leukemia): 21.5 µM | TGI (CCRF-CEM leukemia): 94.3 µM | GI50 (COLO 205 colon): 13.8 µM | TGI (COLO 205 colon): 27.1 µM | GI50 (DU-145 prostate): 17.9 µM | TGI (DU-145 prostate): 64.8 µM | GI50 (EKVX NSCLC): 10.8 µM | TGI (EKVX NSCLC): 84.8 µM | GI50 (HCC-2998 colon): 15.7 µM | TGI (HCC-2998 colon): 31.8 µM | GI50 (HCT-116 colon): 11.9 µM | TGI (HCT-116 colon): > 100 µM | GI50 (HCT-15 colon): 5.61 µM | TGI (HCT-15 colon): > 100 µM | GI50 (HL-60(TB) leukemia): 15.9 µM | TGI (HL-60(TB) leukemia): 54.9 µM | GI50 (HOP-62 NSCLC): 26.9 µM | TGI (HOP-62 NSCLC): > 100 µM | GI50 (HOP-92 NSCLC): 12.3 µM | TGI (HOP-92 NSCLC): 46.2 µM | GI50 (HS 578T breast): 14.8 µM | TGI (HS 578T breast): 38.4 µM | GI50 (HT29 colon): 11.2 µM | TGI (HT29 colon): 26.3 µM | GI50 (IGROV1 ovarian): 23.9 µM | TGI (IGROV1 ovarian): > 100 µM | GI50 (K-562 leukemia): 8.67 µM | TGI (K-562 leukemia): 57.1 µM | GI50 (KM12 colon): 15.1 µM | TGI (KM12 colon): 47.1 µM | GI50 (LOX IMVI melanoma): 20.6 µM | TGI (LOX IMVI melanoma): 61.1 µM | GI50 (M14 melanoma): 23 µM | TGI (M14 melanoma): 62.1 µM | GI50 (MALME-3M melanoma): 17.6 µM | TGI (MALME-3M melanoma): 40.7 µM | GI50 (MCF7 breast): 10.3 µM | TGI (MCF7 breast): 29.6 µM | GI50 (MDA-MB-231 breast): 14.3 µM | TGI (MDA-MB-231 breast): 36.9 µM | GI50 (MDA-MB-435): 14.9 µM | TGI (MDA-MB-435): 36.3 µM | GI50 (MOLT-4 leukemia): 25.6 µM | TGI (MOLT-4 leukemia): 91.2 µM | GI50 (NCI-H226 lung): 17.2 µM | TGI (NCI-H226 lung): 67 µM | GI50 (NCI-H23 lung): 12.1 µM | TGI (NCI-H23 lung): 61 µM | GI50 (NCI-H460 lung): 13.7 µM | TGI (NCI-H460 lung): 31.9 µM | GI50 (NCI-H522 lung): 9.97 µM | TGI (NCI-H522 lung): 26.7 µM | GI50 (NCI/ADR-RES ovarian): 14.5 µM | TGI (NCI/ADR-RES ovarian): > 100 µM | GI50 (OVCAR-3 ovarian): 12.2 µM | TGI (OVCAR-3 ovarian): 58.8 µM | GI50 (OVCAR-4 ovarian): 19.1 µM | TGI (OVCAR-4 ovarian): > 100 µM | GI50 (OVCAR-5 ovarian): 22.1 µM | TGI (OVCAR-5 ovarian): > 100 µM | GI50 (OVCAR-8 ovarian): 20.2 µM | TGI (OVCAR-8 ovarian): > 100 µM | GI50 (PC-3 prostate): 14.2 µM | TGI (PC-3 prostate): 84.7 µM | GI50 (RPMI-8226 leukemia): 11.7 µM | TGI (RPMI-8226 leukemia): 35.5 µM | GI50 (RXF 393 renal): 9.31 µM | TGI (RXF 393 renal): 36.4 µM | GI50 (SF-268 CNS): 24.9 µM | TGI (SF-268 CNS): > 100 µM | GI50 (SF-295 CNS): 11.1 µM | TGI (SF-295 CNS): 38.5 µM | GI50 (SF-539 CNS): 15.4 µM | TGI (SF-539 CNS): 56.9 µM | GI50 (SK-MEL-2 melanoma): 15.6 µM | TGI (SK-MEL-2 melanoma): 31.2 µM | GI50 (SK-MEL-28 melanoma): 19.6 µM | TGI (SK-MEL-28 melanoma): 40.8 µM | GI50 (SK-MEL-5 melanoma): 11.7 µM | TGI (SK-MEL-5 melanoma): 24.4 µM | GI50 (SK-OV-3 ovarian): 21.9 µM | TGI (SK-OV-3 ovarian): 73.5 µM | GI50 (SN12C renal): 20.9 µM | TGI (SN12C renal): > 100 µM | GI50 (SNB-19 CNS): 28.8 µM | TGI (SNB-19 CNS): > 100 µM | GI50 (SNB-75 CNS): 16.6 µM | TGI (SNB-75 CNS): 59 µM | GI50 (SR leukemia): 15.6 µM | TGI (SR leukemia): 52.6 µM | GI50 (SW-620 colon): 5.13 µM | TGI (SW-620 colon): 24.6 µM | GI50 (T-47D breast): 3.23 µM | TGI (T-47D breast): 30.3 µM | GI50 (TK-10 renal): 16.7 µM | TGI (TK-10 renal): 49.8 µM | GI50 (U251 CNS): 4.78 µM | TGI (U251 CNS): 97.4 µM | GI50 (UACC-257 melanoma): 14.4 µM | TGI (UACC-257 melanoma): 34.6 µM | GI50 (UACC-62 melanoma): 13.9 µM | TGI (UACC-62 melanoma): 30.8 µM | GI50 (UO-31 renal): 17.2 µM | TGI (UO-31 renal): 96.3 µM
